{"source": "patent US20260166114A1", "about": "“DYNAMIC HYDROGEL COMPOSITIONS” (The Board of Trustees of the Leland Stanford Junior …, priority 2022, published 2026)", "assay": "Rheological characterization of hydrogel compositions (shear and extensional rheology)", "assay_type": "physicochemical", "conditions": "for change of crossover frequency compared to the Sangelose only hydrogel: 3 wt % Sangelose with 0.75 wt % second agent (αCD 0.05 wt %), 25° C.; for G′ values compared to hydrogels comprising only Sangelose (Tween comparison): at a frequency of 10 rad·s^−1, 3 wt % Sangelose, 0.75 wt % Tween; for tan (delta) compared to Sangelose only hydrogels / storage modulus (G′) compared to Sangelose only hydrogels: measured at 0.1 rad·s^−1, 3 wt % Sangelose with second agent", "method": "Rheological characterization was performed using a 20-mm diameter serrated parallel plate at a 500-μm gap on a TA Instruments DHR-2 stress-controlled rheometer. All measurements were performed at 25° C. Frequency sweep measurements were performed at a constant 1% strain. Steady shear flow sweeps were performed from high to low shear rates. Stress sweeps were performed from low to high with steady-state sensing and yield stress values defined as the stress at which the viscosity decreases 10% from the maximum. Amplitude sweep measurements were performed at a frequency of 0.1 rad·s^-1. P values are calculated with a one-way ANOVA followed by post hoc Tukey multiple comparison test unless otherwise noted. Extensional rheology was performed on a TA Instruments ARES-G2 rheometer in axial mode using an 8-mm parallel plate geometry (R=4 mm) at a H=4 mm gap, resulting in an aspect ratio of H/R=1. A sample volume of 400 μl was loaded for each of the three replicated measurements. All experiments were performed at 25° C. Samples of the hydrogel compositions were loaded and tested immediately within seconds to minimize dehydration. […] (exponential) strain rates were applied at three different strain rates.", "note": "Entries after “also recorded” stand apart in the source; their conditions may differ."}
{"compound": "Span 20", "values": [{"measurement": "change of crossover frequency compared to the Sangelose only hydrogel", "value": "did not change the crossover frequency"}]}
{"compound": "polyoxyethylene (20) sorbitan monopalmitate [Tween 40]", "values": [{"measurement": "G′ values compared to hydrogels comprising only Sangelose (Tween comparison)", "value": "lower G′ values"}, {"measurement": "tan (delta) compared to Sangelose only hydrogels", "value": "significantly higher tan (delta) values"}]}
{"compound": "polyoxyethylene (20) sorbitan monooleate [Tween 80]", "values": [{"measurement": "change of crossover frequency compared to the Sangelose only hydrogel", "value": "shift rightward"}, {"measurement": "G′ values compared to hydrogels comprising only Sangelose (Tween comparison)", "value": "lower G′ values"}, {"measurement": "storage modulus (G′) compared to Sangelose only hydrogels", "value": "lower than the storage modulus of the Sangelose only hydrogels"}, {"measurement": "tan (delta) compared to Sangelose only hydrogels", "value": "higher than the tan (delta) values of the Sangelose only hydrogels; also recorded: significantly higher tan (delta) values"}]}
{"compound": "OCC1O[C@@H]2O[C@@H]3C(CO)O[C@H](O[C@@H]4C(CO)O[C@H](O[C@@H]5C(CO)O[C@H](O[C@@H]6C(CO)O[C@H](O[C@@H]7C(CO)O[C@H](O[C@H]1[C@H](O)[C@H]2O)[C@H](O)[C@H]7O)[C@H](O)[C@H]6O)[C@H](O)[C@H]5O)[C@H](O)[C@H]4O)[C@H](O)[C@H]3O", "note": "(stereo partly drawn) [αCD, α-cyclodextrin]", "values": [{"measurement": "change of crossover frequency compared to the Sangelose only hydrogel", "value": "shift rightward"}, {"measurement": "storage modulus (G′) compared to Sangelose only hydrogels", "value": "lower than the storage modulus of the Sangelose only hydrogels"}, {"measurement": "tan (delta) compared to Sangelose only hydrogels", "value": "higher than the tan (delta) values of the Sangelose only hydrogels"}]}
{"compound": "polyoxyethylene (20) sorbitan monolaurate [Tween 20]", "values": [{"measurement": "change of crossover frequency compared to the Sangelose only hydrogel", "value": "shift rightward"}, {"measurement": "G′ values compared to hydrogels comprising only Sangelose (Tween comparison)", "value": "lower G′ values"}, {"measurement": "storage modulus (G′) compared to Sangelose only hydrogels", "value": "lower than the storage modulus of the Sangelose only hydrogels"}, {"measurement": "tan (delta) compared to Sangelose only hydrogels", "value": "higher than the tan (delta) values of the Sangelose only hydrogels; also recorded: significantly higher tan (delta) values"}]}
